Target: T1, slc26a1 (Mus musculus, UniProt P58735)
T1 construct: expressed in transfected cells; host or cells: 293 T/17 cells, transient transfection with pIRES-HIF vector (IRES-YFP, not fused)
T1 sequence (P58735 1-704): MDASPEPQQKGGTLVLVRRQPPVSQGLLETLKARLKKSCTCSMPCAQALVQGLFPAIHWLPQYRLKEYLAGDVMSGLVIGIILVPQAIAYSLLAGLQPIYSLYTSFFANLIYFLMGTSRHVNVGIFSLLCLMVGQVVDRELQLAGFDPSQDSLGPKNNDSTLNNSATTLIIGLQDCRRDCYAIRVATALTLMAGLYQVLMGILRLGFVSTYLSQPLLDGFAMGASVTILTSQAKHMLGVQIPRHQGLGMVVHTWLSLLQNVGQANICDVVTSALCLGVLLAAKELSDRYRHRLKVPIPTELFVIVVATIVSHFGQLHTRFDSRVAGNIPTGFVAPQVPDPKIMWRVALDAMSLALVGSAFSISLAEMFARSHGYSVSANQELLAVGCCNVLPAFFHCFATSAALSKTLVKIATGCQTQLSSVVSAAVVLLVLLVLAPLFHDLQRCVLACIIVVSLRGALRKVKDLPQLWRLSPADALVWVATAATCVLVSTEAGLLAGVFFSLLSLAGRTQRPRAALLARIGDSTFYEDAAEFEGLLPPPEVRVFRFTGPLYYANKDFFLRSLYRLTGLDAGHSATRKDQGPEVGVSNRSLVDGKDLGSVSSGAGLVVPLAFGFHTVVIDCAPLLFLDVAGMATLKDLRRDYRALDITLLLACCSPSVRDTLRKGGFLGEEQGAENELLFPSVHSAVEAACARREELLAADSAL
Assay: Selectivity: Cl-/I- exchange in 293T/17 cells transfected with slc26a1 and YFP
Format: cell-based
Settings: 25 μM, 10 min preincubation
Method: YFP-based cellular assays of slc26a3, slc26a4, SLC26A9, and TMEM16A function were performed as described previously ([7]). Slc26a1 and slc26a2 assays were done in transfected HEK 293 cells (see Supplemental Methods for details). Niflumic acid was used as a positive control for SLC26A isoforms ([7]). For TMEM16A, the selective small-molecule inhibitor TMinh-23 was used as a positive control ([28]). The activities of ENaC, CFTR, and CaCC were determined using well-differentiated HBE cells as described previously ([13]). Cl^–/HCO3^– exchange was measured as described previously ([7], [10], [11]). Briefly, cell cytoplasm was labeled with the pH-sensitive fluorescent dye BCECF-AM (Invitrogen), and Cl^–/HCO3^– exchange was measured in response to addition of a gluconate-containing solution to drive exchange of cytoplasmic Cl^– for extracellular HCO3^–, producing cytoplasmic alkalinization.
Slc26a1 and slc26a2 cDNA constructs
The complementar y DNA sequences of slc26a1 and slc26a2 were generated using gB LOCK gene fragments (Int egrat ed DNA technology, Coralville, IA) in the plasmid vector pIRESpuro3 (Takara, San J ose, CA). […]
PBS. […] Background-corrected, area-integrat ed single cell fluorescence was calcul ated for determination of slc26a1 / slc26a2 activit y from the rate of fluorescence quenching. […]

Cc1c(Br)c(C(F)(F)F)nn1CC(=O)N1CCc2nc3cc(-c4ccccc4)[nH]n3c(=O)c2C1 [PAT1inh-B01]
effect on slc26a1 activity: did not affect

— PMC8262356, “SLC26A6-selective inhibitor identified in a small-molecule screen blocks fluid absorption in small intestine” (JCI Insight, 2021)
